# Where two headings read alike, the source gives them in different places.
# What was measured:
# [1] = background statement; cited from earlier work
# [2] = tested on: rats with STZ diabetes; experiment: Rats with diabetes induced by streptozotocin (STZ); format: in vivo; conditions: for glycemia / level of malonic dialdehyde (MDA), oxidation stress marker: in comparison to the group of the STZ untreated rats
# [3] = tested on: patients suffering from diabetes of type I and type II
# [4] = tested on: rats with alloxan diabetes
# Text: The results were presented below in Table 2.
# The results of the trials were presented below in Table 3.
# [5] = tested on: people after myocardial infarction; conditions: 15 patients, versus control group
# Text: II-Na salt was applied also for treatment of people after myocardial infarction.
# [6] = tested on: patients with inflammatory diseases of head, maxillofacial area and neck; conditions: above 50 patients, various forms and doses
# [7] = tested on: rats with experimental myocardial infarction; conditions: for ALT / AST / CPK / LDH1, 2: blood, 5 mg/kg per 24 hours intramuscularly, n = 5
# Experimental: (§1) The animals of 230 to 258 g were subjected to ether narcosis for 1-3 minutes, Next, by the thoracotomy method there was achieved access to the anterior branch of the coronary artery and its lumen was closed by means of an electrode. The wound was closed by atraumatic sutures. […] The rats were divided in two groups.
# (§2) The animals were being observed for 24 hours (every one in a separate cage). […] The second group of 10 rats (5 of each group) were killed after 5 days and the third group of 10 animals (5 of each group)—after 7 days. In all the rats there was performed postmortem macroscopic examination of hearts, pleura and abdominal cavity organs. The tissues were taken from the infarct focus for microscopic examination. They were retained in formalin and stained conventionally with H-E. Blood for biochemical tests was taken by heart puncture of 3 ml volume.
# In the biochemical trials there were estimated levels of creatinine kinase (CPK), lactate dehydrogenase (LDH 1-2), aspargine transaminase (AST) and alanine transaminase (ALT) before the infarct and on 1, 5 and 7 day after the infarct (Apparatus “Immunochemistry System”, Beckman Coulter, “DSL”, “Multiscan”, Labsystem; Glycomat DSS, Drew).
# [8] = tested on: patients with acute and chronic pancreatitis
# [9] = tested on: rats with experimental myocardial infarction
# Experimental: as §1, §2
# [10] = tested on: psychotic and neurological patients (multiple sclerosis, anxiety, depression); experiment: Clinical trials in nervous system and psychic diseases; format: in vivo, human
# Text: In the psychotic patients in combination with the conventional treatment and in the neurological patients as monotherapy.
# [11] = tested on: rats with experimentally developed muscles ischemia
# [12] = tested on: model animals with experimentally-induced sepsis; conditions: 0% for untreated animals
# [13] = blood, alloxan diabetes rats treated with II-Na salt (Table 2)
# [14] = blood, alloxan diabetes rats treated with II-Na salt (Table 3)
compound,measurement,setting,value
"Nc1cccc2c(=O)[nH][nH]c(=O)c12 [luminol, 5-Amino-2,3-dihydrophthalazine-1,4-dione]",solubility in water,[1],poorly soluble in water
"Nn1[nH]c(=O)c2ccccc2c1=O.[Na] [compound III, 2-amino-1,2,3,4-tetrahydrophthalazine-1,4-dione sodium salt]",solubility in water,[1],easily soluble in water
"CN(CCOc1ccc(CC2SC(=O)NC2=O)cc1)c1ccccn1 (centres unmarked) [Rosiglytazone, reference compound]",glycemia,[2],55%
same,"level of malonic dialdehyde (MDA), oxidation stress marker",[2],54%
same,"level of glutathione (GSH), oxidation stress marker",[2]; in comparison to the healthy rats,127%
"Nc1cccc2c(=O)[nH][nH]c(=O)c12.[Na] [II-Na salt, 5-amino-2,3-dihydrophthalazine-1,4-dione sodium salt]",glycemia,[2],62%
same,"level of malonic dialdehyde (MDA), oxidation stress marker",[2],48.7%
same,"level of glutathione (GSH), oxidation stress marker",[2]; result in words,does not change
same,glycemia level,"[3]; after a week of treatment, from 7.5 mmol/l, 100 mg intramuscular injection",5.1 mmol/L
same,insulin dose,"[3]; after a week of treatment, reduced from 45 IU",15 IU per day
same,cholesterol level,[3]; patients with diabetes of type II,slight reduction
same,IGF-1,"[4]; blood, alloxan diabetes rats treated with II-Na salt",699.13 ± 81.4 ng/mL
same,IGF-2,[4]; [13],37.9 ± 1.65 ng/mL
same,Insulin,[4]; [13],0.724 ± 0.08 mg/mL
same,IGF-2,[4]; [14],37.9 ± 1.65 ng/mL
same,Insulin,[4]; [14],7.24e-07 ± 8e-08 mg/mL
same,Glucose,"[4]; blood, alloxan diabetes rats treated with II-Na salt, 5 mg per kg per 24 hours for a month, sodium salt",4.16 ± 0.56 mmol/L
same,Glycated hemoglobin (Hb A1C),"[4]; blood, alloxan diabetes rats treated with II-Na salt, sodium salt",9.05 ± 0.58 %
same,IGF-1/IGF-2,"[4]; ratio, alloxan diabetes rats treated with II-Na salt",16.2 ± 2.4
same,pain discomfort in the chest,[5]; 100/200 mg per 24 hours intramuscular for seven days plus conventional therapy,quicker reduction of pain discomfort in the chest
same,"blood biochemical parameters (CPK, LDH, ALT, AST) and x-ray image",[5],quicker normalization of blood biochemical parameters
same,effect on inflammatory state,[6],"quicker tissues regeneration, inhibition of apoptosis and quicker symptoms subsidence or remission maintenance"
same,ALT,[7]; fifth day after infarct,0.271 ± 0.059 µmol/L
same,AST,[7]; fifth day after infarct,0.204 ± 0.03 µmol/L
same,CPK,[7]; fifth day after infarct,405.28 ± 27.84 µmol/L
same,"LDH1, 2",[7]; fifth day after infarct,187.94 ± 34.37 µmol/L
same,ALT,[7]; first day after infarct,0.178 ± 0.028 µmol/L
same,AST,[7]; first day after infarct,0.254 ± 0.034 µmol/L
same,CPK,[7]; first day after infarct,322.56 ± 43.79 µmol/L
same,"LDH1, 2",[7]; first day after infarct,248.84 ± 41.10 µmol/L
same,ALT,[7]; seventh day after infarct,0.24 ± 0.024 µmol/L
same,AST,[7]; seventh day after infarct,0.225 ± 0.024 µmol/L
same,CPK,[7]; seventh day after infarct,291.35 ± 18.9 µmol/L
same,"LDH1, 2",[7]; seventh day after infarct,175.5 ± 25.89 µmol/L
same,normalization of the tested blood parameters,[7]; conclusion on Table 1,quicker normalization of all the tested parameters
same,starting formation of pseudocysts,"[8]; 2 patients, after treatment",disappeared
same,septic complications,"[8]; 25 patients, conventional therapy plus II-Na salt",one patient
same,normalization of the laboratory tests results,"[8]; after a month, of 25 patients",twenty two patients
same,patients who could come back to nutrition per os,"[8]; after three weeks of treatment, of 25 patients",twenty patients
same,insulin level,[8]; after two weeks of treatment,raised nearly to normal
same,reduction of the glucose level,[8]; after two weeks of treatment,two times
same,reduction Hb1AC,"[8]; after two weeks of treatment, fifteen patients with reduced insulin level",in six patients to the normal range
same,insulin administration,"[8]; after two weeks of treatment, from up to 40 IU/day",10 IU/day
same,pain disappeared in all patients (time),[8]; control group: above two weeks,seven days
same,pain symptoms reduced in all the patients (time),[8]; day of treatment,second day
same,effects observed in the pancreas,"[8]; research (rats, 5 mg per kg per 24 hours for a month) and clinical trials",inhibition of inflammatory and necrotic processes in the pancreas
same,polymorphic-nucleated leucocytes in the demarcation zone,[9]; fifth day,not observed
same,postoperative wound healed by first intension (per primam),"[9]; fifth day, 4 rats without II-Na salt",all 5 rats
same,leucocytes migration,[9]; first 24 hours after the infarct,not observed
same,fibrosis (Weinert's staining),"[9]; fourteenth day, 5 mg/kg",only few traits of fibrosis
same,polymorphic-nucleated leucocytes,"[9]; fourteenth day, 5 mg/kg",not observed
same,regeneration processes of damaged tissues,[9]; overall conclusion,positive influence on regeneration processes of damaged tissues
same,capillary vessels in the infarct zone,[9]; seventh day,normal of the sinusoidal type
same,lymphocytic profile and cytokines,[10]; II-Na salt 100 mg per 24 hours intramuscularly for 30 days,normalization of the lymphocytic profile and cytokines
same,disease symptoms,"[10]; human, in vivo",disease symptoms reduction
same,preventive use in the period of remission,"[10]; spring and autumn, 100 mg/d, 10 injections every day and 10 every second day",long-time remission
same,Number of capill. in 1 mm^3,[11]; Ischaemia-12 days,152.3 ± 12.7 in 1 mm^3
same,Number of capill. in 1 mm^3,[11]; Ischaemia-29 days,236.4 ± 16.9 in 1 mm^3
same,viability of rats,[12],80%
